The source made the active and inactive calls. No cut-off for these calls is given here.
Assays:
[1] = system: HepG2; assay: Cytotoxicity against human HepG2 cells at 50 to 100 uM after 24 to 72 hrs by LDH release assay; type: functional, cell-based
[2] = system: SH-SY5Y; assay: Antiproliferative activity against human SH-SY5Y cells after 24 to 72 hrs by MTT assay; type: functional, cell-based
[3] = system: HepG2; assay: Cytotoxicity against human HepG2 cells assessed as cell death at 1 to 100 uM after 24 to 72 hrs by trypan blue dye exclusion assay; type: functional, cell-based
[4] = system: HT-29; assay: Cytotoxicity against human HT-29 cells at 50 to 100 uM after 24 to 72 hrs by LDH release assay; type: functional, cell-based
[5] = system: HT-29; assay: Antiproliferative activity against human HT-29 cells at 100 uM after 48 hrs by MTT assay; type: functional, cell-based
[6] = system: HepG2; assay: Antiproliferative activity against human HepG2 cells at 1 to 100 uM after 24 to 72 hrs by cell counting assay; type: functional, cell-based
[7] = system: SH-SY5Y; assay: Antiproliferative activity against human SH-SY5Y cells at 1 to 100 uM after 24 to 72 hrs by cell counting assay; type: functional, cell-based
[8] = system: HT-29; assay: Antiproliferative activity against human HT-29 cells at 1 to 100 uM by MTT assay; type: functional, cell-based; conditions: TDE = time-dependent effect
[9] = system: HepG2; assay: Antiproliferative activity against human HepG2 cells after 24 to 72 hrs by MTT assay; type: functional, cell-based
[10] = system: SH-SY5Y; assay: Cytotoxicity against human SH-SY5Y cells at 50 to 100 uM after 24 to 72 hrs by LDH release assay; type: functional, cell-based
[11] = system: HT-29; assay: Antiproliferative activity against human HT-29 cells after 24 to 72 hrs by MTT assay; type: functional, cell-based
[12] = system: SH-SY5Y; assay: Cytotoxicity against human SH-SY5Y cells assessed as cell death at 1 to 100 uM after 24 to 72 hrs by trypan blue dye exclusion assay; type: functional, cell-based
[13] = system: SH-SY5Y; assay: Antiproliferative activity against human SH-SY5Y cells at 1 to 100 uM by MTT assay; type: functional, cell-based; conditions: TDE = time-dependent effect
[14] = system: HT-29; assay: Cytotoxicity against human HT-29 cells assessed as cell death at 1 to 100 uM after 24 to 72 hrs by trypan blue dye exclusion assay; type: functional, cell-based
[15] = system: HepG2; assay: Antiproliferative activity against human HepG2 cells at 1 to 100 uM by MTT assay; type: functional, cell-based; conditions: TDE = time-dependent effect
[16] = system: HT-29; assay: Antiproliferative activity against human HT-29 cells at 50 uM after 48 to 72 hrs by MTT assay; type: functional, cell-based
[17] = system: HT-29; assay: Antiproliferative activity against human HT-29 cells at 1 to 100 uM after 24 to 72 hrs by cell counting assay; type: functional, cell-based
[18] = system: HT-29; assay: Antiproliferative activity against human HT-29 cells at 100 uM after 72 hrs by MTT assay; type: functional
[19] = system: SH-SY5Y; assay: Cytotoxicity against human SH-SY5Y cells at 1 to 100 uM after 24 to 72 hrs by LDH release assay; type: functional, cell-based
[20] = system: HepG2; assay: Antiproliferative activity against human HepG2 cells at 1 to 100 uM after 24 to 72 hrs by MTT assay; type: functional, cell-based
[21] = system: HT-29; assay: Cytotoxicity against human HT-29 cells at 1 to 100 uM after 24 to 72 hrs by LDH release assay; type: functional, cell-based
[22] = system: HepG2; assay: Cytotoxicity against human HepG2 cells at 1 to 100 uM after 24 to 72 hrs by LDH release assay; type: functional, cell-based
[23] = system: SH-SY5Y; assay: Antiproliferative activity against human SH-SY5Y cells at 1 to 100 uM after 24 to 72 hrs by MTT assay; type: functional, cell-based
[24] = system: HT-29; assay: Antiproliferative activity against human HT-29 cells at 1 to 100 uM after 24 to 72 hrs by MTT assay; type: functional, cell-based
[25] = system: SH-SY5Y; assay: Antiproliferative activity against human SH-SY5Y cells at 100 uM after 72 hrs by MTT assay; type: functional, cell-based
[26] = system: HepG2; assay: Antiproliferative activity against human HepG2 cells at 100 uM after 72 hrs by MTT assay; type: functional, cell-based
[27] = system: HT-29; assay: Antiproliferative activity against human HT-29 cells at 50 to 100 uM after 48 to 72 hrs by MTT assay; type: functional, cell-based

## CN1O[C@@H]2COCC#Cc3ccccc3C#CCOC[C@@H]2[C@@H]1CO[Si](c1ccccc1)(c1ccccc1)C(C)(C)C (racemic)
[1]
  Activity: Active
[2]
  Activity: Dose-dependent effect
[3]
  Activity: Active
[4]
  Activity: Active
[5]
  Activity: Active
[6]
  Activity: Active
[7]
  Activity: Active
[8]
  Activity: tde
[9]
  Activity: Dose-dependent effect
[10]
  Activity: Active
[11]
  Activity: Dose-dependent effect
[12]
  Activity: Active
[13]
  Activity: tde
[14]
  Activity: Active
[15]
  Activity: tde
[16]
  Activity: Active
[17]
  Activity: Active
[18]
  Activity: 63%

## CN1O[C@@H](OCC#Cc2ccccc2C#CCO)C[C@@H]1CO[Si](c1ccccc1)(c1ccccc1)C(C)(C)C (racemic)
[6]
  Activity: inactive
[7]
  Activity: inactive
[19]
  Activity: inactive
[20]
  Activity: inactive
[21]
  Activity: inactive
[22]
  Activity: inactive
[23]
  Activity: inactive
[24]
  Activity: inactive
[17]
  Activity: inactive

## CN1O[C@H](OCC#Cc2ccccc2C#CCO)C[C@@H]1CO (racemic)
[1]
  Activity: Active
[2]
  Activity: Dose-dependent effect
[25]
  Activity: Active
[3]
  Activity: Active
[4]
  Activity: Active
[6]
  Activity: Active
[7]
  Activity: Active
[8]
  Activity: tde
[9]
  Activity: Dose-dependent effect
[26]
  Activity: Active
[10]
  Activity: Active
[27]
  Activity: Active
[11]
  Activity: Dose-dependent effect
[12]
  Activity: Active
[13]
  Activity: tde
[14]
  Activity: Active
[15]
  Activity: tde
[17]
  Activity: Active

## CN1O[C@H](OCC#Cc2ccccc2C#CCO)C[C@@H]1CO[Si](c1ccccc1)(c1ccccc1)C(C)(C)C (racemic)
[6]
  Activity: inactive
[7]
  Activity: inactive
[19]
  Activity: inactive
[20]
  Activity: inactive
[21]
  Activity: inactive
[22]
  Activity: inactive
[23]
  Activity: inactive
[24]
  Activity: inactive
[17]
  Activity: inactive
